Structures are written as SMILES.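 Assay format: 96-well plates, 48-hour exposure. GI50 marks 50% less growth. TGI: concentration producing complete growth inhibition.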 Some results are limits rather than exact numbers.

The values that follow come from PubChem BioAssay (NCI).

Some test systems named below: DLD-1 colon; DMS 114 small cell lung; DMS 273 small cell lung; HOP-18 NSCLC; HOP-62 NSCLC; KM12 colon; KM20L2 colon; LXFL 529 NSCLC; M19-MEL melanoma; SNB-78 CNS; XF 498 CNS.
Holding throughout (test): NCI anticancer screen, dose series, 48 h

On to `COC(=O)C1C=CCON2CCc3c(n(S(=O)(=O)c4ccccc4)c4ccccc34)C12` (configuration not stated), for which the TGI in the assay on DLD-1 colon is above 22.8 µM; in the assay on DMS 114 small cell lung, above 87.7 µM; with DMS 273 small cell lung, above 66.2 µM; in the assay with HOP-18 NSCLC, above 100 µM; in the assay on HOP-62 NSCLC, above 55.5 µM; with KM12 colon, above 55.6 µM. Moreover, the TGI is above 63.2 µM in the assay with KM20L2 colon, above 100 µM in the assay on LXFL 529 NSCLC, above 70.5 µM in the assay with M19-MEL melanoma and above 100 µM in the assay with SNB-78 CNS.

On to `O=c1c2c(c1=O)-c1ccccc1CN2`, for which the TGI in the assay on DLD-1 colon, in the assay with DMS 114 small cell lung, in the assay with DMS 273 small cell lung, in the assay with HOP-62 NSCLC, in the assay with KM12 colon and with KM20L2 colon was above 100 µM each time. Further, the TGI in the assay with LXFL 529 NSCLC, with M19-MEL melanoma, with SNB-78 CNS and in the assay on XF 498 CNS was above 100 µM throughout.

Consider `O=C1C=CC2(C=C1)C[C@H](NC(=O)OCc1ccccc1)C(=O)O2`, for which the TGI in the assay with DLD-1 colon is 14.1 µM; in the assay with DMS 114 small cell lung it was 47.2 µM; in the assay on DMS 273 small cell lung, 35 µM; with HOP-18 NSCLC it was 31.5 µM; with HOP-62 NSCLC it was above 69.2 µM; in the assay with KM12 colon, 35.7 µM. Also, the TGI in the assay with KM20L2 colon worked out at 38.7 µM; in the assay on LXFL 529 NSCLC, 24.7 µM; with M19-MEL melanoma, 33.7 µM; in the assay with SNB-78 CNS it was 67.2 µM; with XF 498 CNS, 32 µM.

As to `CCOC(=O)C1(Br)S(=O)(=O)OCCOS1(=O)=O`, the TGI in the assay on DLD-1 colon, in the assay on DMS 114 small cell lung, in the assay on DMS 273 small cell lung, in the assay on HOP-62 NSCLC, with KM20L2 colon and in the assay with M19-MEL melanoma was above 100 µM throughout. Moreover, the TGI with SNB-78 CNS and with XF 498 CNS was above 100 µM throughout.

For `CCCN(CCC)C1=Nc2ccccc2-n2cnnc2C1`, the TGI in the assay with DMS 114 small cell lung, with DMS 273 small cell lung, in the assay on HOP-62 NSCLC, with KM12 colon, in the assay on KM20L2 colon and in the assay on LXFL 529 NSCLC was above 100 µM in each case. Moreover, the TGI with M19-MEL melanoma, in the assay with SNB-78 CNS and in the assay on XF 498 CNS was above 100 µM in each case.

For the compound `C=C1Cc2cc(OC)c(OC)c(OC)c2-c2ccc(SC)c(=O)cc21`, the TGI in the assay with DLD-1 colon is 3.7 µM; with DMS 114 small cell lung, below 0.0279 µM; in the assay with HOP-18 NSCLC, 11.9 µM; with HOP-62 NSCLC, 7.8 µM; in the assay with KM12 colon it was below 0.01 µM; in the assay with LXFL 529 NSCLC, 1.81 µM. Also, the values for the TGI in the assay with M19-MEL melanoma and in the assay on SNB-78 CNS were 2.42 µM and 49.4 µM, respectively.

As to `CN(C(=O)c1ccco1)C(=S)N1CCN(c2ccccn2)CC1`, the TGI with DLD-1 colon, in the assay with DMS 273 small cell lung, in the assay with HOP-18 NSCLC, with HOP-62 NSCLC, in the assay on KM12 colon and in the assay with KM20L2 colon was above 100 µM in each case. Moreover, the TGI in the assay on LXFL 529 NSCLC, with M19-MEL melanoma, in the assay with SNB-78 CNS and with XF 498 CNS was above 100 µM throughout.

On to `O=c1c([OH2+])c(-c2ccc(O)cc2[O-])oc2cc(O)cc([O-])c12.O=c1c([OH2+])c(-c2ccc(O)cc2[O-])oc2cc(O)cc([O-])c12.[Ti+4]`, for which the GI50 in the assay on DLD-1 colon, in the assay on DMS 114 small cell lung, in the assay with DMS 273 small cell lung, in the assay with HOP-18 NSCLC, with KM20L2 colon and with LXFL 529 NSCLC was above 100 µM each time. For the same compound, the GI50 in the assay on M19-MEL melanoma and with SNB-78 CNS was above 100 µM each time. The TGI with DLD-1 colon, in the assay with DMS 114 small cell lung, in the assay on DMS 273 small cell lung, with HOP-18 NSCLC, in the assay with HOP-62 NSCLC and in the assay with KM12 colon was above 100 µM throughout. The TGI in the assay with KM20L2 colon, with LXFL 529 NSCLC, in the assay on M19-MEL melanoma and in the assay on SNB-78 CNS was above 100 µM each time.

Consider `CCCCCCCCOC(=O)c1cc([N+](=O)[O-])c(Sc2ncnc3nc[nH]c23)c([N+](=O)[O-])c1`, for which the TGI with DLD-1 colon worked out at 2.94 µM; in the assay with DMS 114 small cell lung it was 1.81 µM; with DMS 273 small cell lung it was 1.57 µM; in the assay on HOP-18 NSCLC, 11.1 µM; in the assay with HOP-62 NSCLC, 21.8 µM; in the assay on KM12 colon, 18 µM. In addition, the TGI in the assay on KM20L2 colon was determined as 9.22 µM; with M19-MEL melanoma it was 12.9 µM; in the assay on SNB-78 CNS, 10.5 µM; in the assay with XF 498 CNS it was 2.24 µM.

Turning to `COC(=O)C1(C)NCCc2c1[nH]c1ccccc21` (configuration not stated), the TGI in the assay with DLD-1 colon, in the assay with DMS 114 small cell lung, in the assay on HOP-62 NSCLC, in the assay with KM12 colon, with KM20L2 colon and with LXFL 529 NSCLC was above 100 µM in each case. In addition, the TGI in the assay on M19-MEL melanoma is above 100 µM.

Consider `O=C1O/C(=C\c2ccc(O)cc2)C(c2ccc(O)c(Cl)c2)=C1Cl`, for which the TGI in the assay on HOP-62 NSCLC and with KM12 colon was above 100 µM in each case.

As for `O=C1NC(=S)NC(=O)C1=C/C=C/c1ccc([N+](=O)[O-])cc1`, the figures for the TGI in the assay with HOP-62 NSCLC and in the assay with KM12 colon were 34.9 µM and above 100 µM, respectively.

Turning to `COc1cc2c[n+](C)c3c(c2cc1OC)Cc1cc2c(cc1-3)OCO2`, the TGI in the assay on HOP-62 NSCLC and in the assay with KM12 colon was above 100 µM in each case.

As to `COc1cccc(NC(=O)C(=O)C2C=CCS2(=O)=O)c1` (configuration not stated), the TGI with DLD-1 colon, with DMS 114 small cell lung, with HOP-18 NSCLC, in the assay with HOP-62 NSCLC, in the assay with KM12 colon and in the assay on KM20L2 colon was above 100 µM each time. The TGI in the assay with LXFL 529 NSCLC, with M19-MEL melanoma and in the assay with XF 498 CNS was above 100 µM throughout.

For the compound `Cc1cc2nc(N3C(=O)/C(=C/c4ccc(N(C)C)cc4)N=C3c3ccccc3)sc2cc1C`, the TGI in the assay with HOP-62 NSCLC and with KM12 colon was above 100 µM throughout.

For `N#Cc1ccc(C2NN=CC23C(=O)c2ccccc2OC3c2ccccc2)cc1` (configuration not stated), the TGI in the assay with HOP-62 NSCLC and in the assay on KM12 colon was above 100 µM in each case.

For the compound `[N-]=[N+]=CC(=O)CCC(=O)N(c1ccccc1)c1ccccc1`, the TGI in the assay with HOP-62 NSCLC and in the assay with KM12 colon was above 10 µM in each case.

With `CCCCOC(=O)c1cc(C(=CCC[C@H]2CC[C@@]3(C)[C@@H](CC[C@@H]4[C@@H]3CC[C@]3(C)[C@@H](C(C)CCCC(C)C)CC[C@@H]43)C2)c2cc(Cl)c(O)c(C(=O)OCCCC)c2)cc(Cl)c1O` (some centres not stated), the TGI with HOP-62 NSCLC and with KM12 colon was above 50 µM in each case.

With `O=c1c2c(F)c(F)c(F)c(F)c2sc2nccn12`, the TGI turned out to be 42.3 µM in the assay on HOP-62 NSCLC and 32.2 µM in the assay with KM12 colon.

On to `CC1(C)OC(=O)C(Cc2ccccc2)(Cc2ccccc2)C(=O)O1`, for which the TGI in the assay on HOP-62 NSCLC and in the assay on KM12 colon was above 100 µM throughout.

In the case of `CCOC(=O)C(CCc1ncnc2c1ncn2Cc1ccccc1)(CCc1ncnc2c1ncn2Cc1ccccc1)C(=O)OCC`, the TGI in the assay on HOP-62 NSCLC and in the assay with KM12 colon was above 100 µM throughout.

For the compound `O=c1ccnc2ccc3n[nH][nH]c3c12`, the TGI with DLD-1 colon, in the assay with DMS 114 small cell lung, with DMS 273 small cell lung, in the assay with HOP-18 NSCLC, in the assay on HOP-62 NSCLC and with KM12 colon was above 100 µM in each case. Also, the TGI in the assay on KM20L2 colon, in the assay on LXFL 529 NSCLC, in the assay on M19-MEL melanoma, in the assay with SNB-78 CNS and in the assay on XF 498 CNS was above 100 µM in each case.

Turning to `Cc1ccc(N=C2C(c3ccccc3)=C(SC3=C(c4ccccc4)C(=Nc4ccc(C)cc4)c4ccccc43)c3ccccc32)cc1`, the figures for the TGI in the assay with HOP-62 NSCLC and in the assay with KM12 colon were 22.9 µM and above 100 µM, respectively.

`C1CN2CCNCCN(CCN1)CC2`: the TGI in the assay with HOP-62 NSCLC and in the assay with KM12 colon was above 100 µM throughout.

On to `O=C(C/C=C/c1ccccc1)c1ccccc1`, for which the TGI was found to be 73.7 µM in the assay with HOP-62 NSCLC and 25.6 µM in the assay on KM12 colon.

For the compound `CSCCC(C(=O)O)N(CC1(O)OCC(O)C(O)C1O)N=O` (configuration not stated), the TGI in the assay with DLD-1 colon, with DMS 114 small cell lung, in the assay with DMS 273 small cell lung, with HOP-62 NSCLC, in the assay with KM12 colon and in the assay with KM20L2 colon was above 100 µM throughout. The TGI with LXFL 529 NSCLC, in the assay with M19-MEL melanoma, in the assay on SNB-78 CNS and in the assay with XF 498 CNS was above 100 µM throughout.
